Laboratory results: article PMC11831592, “Repurposing Linezolid in Conjunction with Histone Deacetylase Inhibitor Access in the Realm of Glioblastoma Therapies” (Journal of Medicinal Chemistry, 2025)

Key:
HDAC6 = target: T1, HDAC6 (Homo sapiens, UniProt Q9UBN7); assay: HDAC enzyme inhibition assay, HDAC6; type: biochemical; conditions: 10-dose, 3-fold serial dilution starting at 10 μM
T1 construct: purchased Reaction Biology Corporation, Malvern, PA (contract assay service)
T1 sequence (Q9UBN7 1-1215): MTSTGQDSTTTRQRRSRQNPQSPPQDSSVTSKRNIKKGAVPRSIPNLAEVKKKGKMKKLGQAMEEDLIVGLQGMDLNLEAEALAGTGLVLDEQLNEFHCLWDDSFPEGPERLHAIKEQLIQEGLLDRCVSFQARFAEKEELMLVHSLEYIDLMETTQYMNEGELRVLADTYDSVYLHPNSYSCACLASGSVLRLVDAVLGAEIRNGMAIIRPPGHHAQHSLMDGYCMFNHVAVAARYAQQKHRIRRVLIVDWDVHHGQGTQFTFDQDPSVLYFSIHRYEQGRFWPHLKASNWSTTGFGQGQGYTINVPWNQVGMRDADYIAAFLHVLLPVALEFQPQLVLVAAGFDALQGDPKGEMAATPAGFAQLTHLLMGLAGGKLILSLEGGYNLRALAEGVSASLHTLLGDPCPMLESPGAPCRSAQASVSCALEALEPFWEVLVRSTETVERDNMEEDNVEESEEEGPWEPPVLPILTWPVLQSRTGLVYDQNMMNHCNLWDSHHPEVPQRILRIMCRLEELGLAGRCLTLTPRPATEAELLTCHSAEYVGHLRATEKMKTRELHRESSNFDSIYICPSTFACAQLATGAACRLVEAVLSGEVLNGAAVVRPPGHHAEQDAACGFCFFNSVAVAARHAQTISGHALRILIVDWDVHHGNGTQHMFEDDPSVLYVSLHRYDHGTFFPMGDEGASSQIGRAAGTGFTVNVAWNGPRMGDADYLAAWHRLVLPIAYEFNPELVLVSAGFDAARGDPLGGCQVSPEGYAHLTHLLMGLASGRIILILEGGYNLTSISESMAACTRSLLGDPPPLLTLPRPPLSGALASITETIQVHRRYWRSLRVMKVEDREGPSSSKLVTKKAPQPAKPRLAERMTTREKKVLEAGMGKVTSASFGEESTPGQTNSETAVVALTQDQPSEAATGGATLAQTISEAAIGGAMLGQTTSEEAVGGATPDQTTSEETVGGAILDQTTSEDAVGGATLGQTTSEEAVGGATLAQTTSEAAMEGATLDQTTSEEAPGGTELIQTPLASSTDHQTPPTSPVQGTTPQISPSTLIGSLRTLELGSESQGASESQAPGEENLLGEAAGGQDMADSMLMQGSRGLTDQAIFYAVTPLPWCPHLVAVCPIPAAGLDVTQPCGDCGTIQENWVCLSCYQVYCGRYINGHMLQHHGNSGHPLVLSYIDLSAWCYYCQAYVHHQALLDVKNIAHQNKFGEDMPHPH
Method: (§1) Enzyme inhibition assays were performed by the Reaction Biology Corporation, Malvern, PA (http://www.reactionbiology.com).

[1] = tested on: TMZ-resistant GBM cell lines A172R and PT#3R; assay: MTT cytotoxicity assay, TMZ-resistant GBM lines (statement in words); type: cell-based; conditions: 0 to 80 μM, 72 h
Method: (§2) We utilized linezolid as the structural foundation to confirm the cytotoxicity of linezolid-conjugated functional domains against glioblastoma (GBM). We combined it with the binding structures of anti-histone deacetylases (HDACs) (denoted as compounds 1–5 and 11–14), antitubulin (compound 6), anticyclooxygenase (COX) (compound 7), and anti-heat shock protein 90 (Hsp90) (compounds 8–10). These constructs were then administered to TMZ-resistant GBM cell lines A172R and PT#3R at concentrations ranging from 0 to 80 μM over 72 h. The cytotoxic effects of these compounds were assessed using the MTT assay (Table 1 and Supporting Information IV). […] Given the remarkable cytotoxicity of compound 1 on both A172-R and PT#3-R TMZ-resistant cells, this study subsequently focused on compound 1 for further in-depth investigation and mechanistic exploration. To validate that the cytotoxic effect of compound 1 on GBM is not attributed to linezolid alone, we separately treated the TMZ-resistant GBM cell line PT#3-R with compound 1 and linezolid. […] This confirms that the cytotoxicity of compound 1 against GBM is primarily attributable to the inhibitory structure of linezolid-conjugated HDAC (Figure 2A). Furthermore, we compared the cytotoxic effects of compound 1 on various wild-type brain tumor cell lines, including U87MG, PT#3, LN229 GBM cells, and CT-2A mouse astrocyte cell line as well as TMZ-resistant variants cell lines, including U87MG-R, PT#3-R, CT-2A-R, and T98G (MGMT-positive). […] Additionally, we further confirmed the efficacy of compound 1 in GBM treatment.
MTT assay was employed to evaluate the cytotoxicity of the synthesized compound against resistant GBM cells. The MTT (3-(4,5-dimethylthiazol-2-yl)-2,5-diphenyltetrazolium bromide, catalog no. AM0818-0005) powder was purchased from BIONOVAS (Ontario, Canada). The MTT was prepared at 10 mg/mL stock with ultrapure water and then stored at −20 °C. […] Finally, 100 μL of the mixture was transferred to measure the OD 595 nm absorbance.

[2] = tested on: A172-R TMZ-resistant GBM cell line; assay: MTT cytotoxicity assay, A172-R; type: cell-based; conditions: Homo sapiens, 72 h
Method: as §2
MTT assay was employed to evaluate the cytotoxicity of the synthesized compound against resistant GBM cells. The MTT (3-(4,5-dimethylthiazol-2-yl)-2,5-diphenyltetrazolium bromide, catalog no. AM0818-0005) powder was purchased from BIONOVAS (Ontario, Canada). The MTT was prepared at 10 mg/mL stock with ultrapure water and then stored at −20 °C. All cells were seeded 2.5 × 10^4 per well in the 24-well plate for 24 h, followed by treating at different concentrations of compounds for 72 h. Before the experiment, the MTT stock was 10-fold diluted with the culture medium and then incubated with cells for 30 min. After the incubation, the MTT medium was discarded and added 300 μL of dimethyl sulfoxide (DMSO, cat. no. D2650, Sigma-Aldrich, MO, USA) to dissolve the cells. Finally, 100 μL of the mixture was transferred to measure the OD 595 nm absorbance.

HDAC2 = target: T2, HDAC2 (Homo sapiens, UniProt Q92769); assay: HDAC enzyme inhibition assay, HDAC2; type: biochemical; conditions: 10-dose, 3-fold serial dilution starting at 10 μM
T2 construct: purchased Reaction Biology Corporation, Malvern, PA (contract assay service)
T2 sequence (Q92769 whole entry): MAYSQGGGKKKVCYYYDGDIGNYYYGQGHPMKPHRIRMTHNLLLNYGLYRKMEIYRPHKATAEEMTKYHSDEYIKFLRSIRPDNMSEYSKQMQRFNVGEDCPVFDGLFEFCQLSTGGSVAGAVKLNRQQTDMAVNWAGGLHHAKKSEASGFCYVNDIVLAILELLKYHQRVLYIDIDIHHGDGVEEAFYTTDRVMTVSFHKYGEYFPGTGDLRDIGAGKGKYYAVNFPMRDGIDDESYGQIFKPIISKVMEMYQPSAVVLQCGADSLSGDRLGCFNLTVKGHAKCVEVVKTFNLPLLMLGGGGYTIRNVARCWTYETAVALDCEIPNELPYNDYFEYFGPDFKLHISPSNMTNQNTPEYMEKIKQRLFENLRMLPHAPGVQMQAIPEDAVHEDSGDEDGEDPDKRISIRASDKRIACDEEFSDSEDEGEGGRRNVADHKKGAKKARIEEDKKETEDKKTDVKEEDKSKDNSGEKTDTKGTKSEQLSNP
Method: as §1

PT#3-R = assay: CCK8 cell proliferation assay, PT#3-R; type: cell-based; conditions: Homo sapiens, CCK8, 72 h
Method: Cell viability and drug cytotoxicity were determined by a CCK-8 kit (Cell Counting Kit-8, CK04-13, MD, USA) (CCK8, C0005, Target Molecule Corp., MA, USA) reagent. Cells were seeded 2 × 10^3 per well in the 96-well plate for 24 h, followed by treating at different concentrations of compounds for 72 h. Before the experiment, CCK8 was 10-fold diluted with the culture medium and then incubated with cells for 30 min. Finally, the OD was 450 nm absorbance and calculated for cell viability.

PT#3R cells = assay: Cell cycle analysis by flow cytometry; type: cell-based, human; conditions: 72 h
Method: To measure the cell cycle, cells were seeded 5 × 10^4 per well in a 12-well plate for 24 h, followed by treatment of the different concentrations of compounds for 72 h. Next, the cells were fixed with 70% ethanol and stored at −20 °C for at least 24 h. After washing, the cells were stained with 30 μg/mL propidium iodide (PI, Cat# P4170, Sigma-Aldrich) and contented 10 ng/mL RNaseA (Cat# R6148, Sigma-Aldrich) for 30 min, followed by detection using flow cytometry Guava easyCyte Flow Cytometers and then analyzed by the Guava easyCyte System 3.3 (Cytec Industries Incorporated, NJ, USA).

Q: For O=C(/C=C/c1ccc(CNC[C@H]2CN(c3ccc(N4CCOCC4)c(F)c3)C(=O)O2)cc1)NO [compound 1, (S,E)-3-(4-((((3-(3-Fluoro-4-morpholinophenyl)-2-oxooxazolidin-5-yl)methyl)ami-no)methyl)phenyl)-N-hydroxyacrylamide], which IC50 (HDAC6) is on record?
A: 0.106 µM

Q: What about the “cytotoxicity in TMZ-resistant GBM” value [1] of the same compound?
A: exhibited the capacity to induce cytotoxicity

Q: What about the IC50 [2] of the same compound?
A: 17.4 ± 1.21 µM

Q: And the IC50 (HDAC2)?
A: 2.81 µM

Q: What about the IC50 (PT#3-R) of the same compound?
A: 11.1 ± 0.57 µM

Q: What about the cell cycle distribution (PT#3R cells) of the same compound?
A: G2/M phase arrest and increases in the sub-G1 cell population
